Test results: US20240217948A1, “CRYSTALLINE FORMS OF A LPA1 ANTAGONIST” (Bristol-Myers Squibb Company, priority 2022, published 2024)

What was measured:
[1] = Moisture sorption isotherms; format: physicochemical; settings: 25° C., 4-95% RH (FIG. 4)
Description: Moisture sorption isotherms were collected in a TA Instrument VTI-SA+ Vapor Sorption Analyzer using approximately 270 mg of sample in a 250 μL ceramic pan. The sample was dried at 30° C. until the loss rate of 0.005 wt %/min was obtained for 10 minutes. The sample was tested at 25° C. and 4, 5, 15, 25, 35, 45, 50, 65, 75, 85, and 95% RH. Equilibration at each RH was reached when the rate of 0.01 wt %/min for 35 minutes was achieved or a maximum of 600 minutes.

[2] = test system: idiopathic pulmonary fibrosis; settings: patients with IPF; cited from earlier work
[3] = test system: progressive pulmonary fibrosis; settings: patients with PPF, versus placebo, 52-week study period; cited from earlier work

## CCCN(C)C(=O)OCc1c(-c2ccc(O[C@H]3CCC[C@H](C(=O)O)C3)c(C)n2)nnn1C [Form A]
[1]
  hygroscopicity: non-hygroscopicity

## COC(=O)c1ccc2c(c1)NC(=O)/C2=C(\Nc1ccc(N(C)C(=O)CN2CCN(C)CC2)cc1)c1ccccc1 [nintedanib]
[2]
  decline in lung function: significantly reduce the decline in lung function
[3]
  progression of lung fibrosis (annual rate of decline in FVC): slower progression of lung fibrosis

## Cc1ccc(=O)n(-c2ccccc2)c1 [pirfenidone]
[2]
  decline in lung function: significantly reduce the decline in lung function
